# Measured values taken from PMC6022752 (Journal of the American Chemical Society, 2018).
# Key:
# JAK1 = JAK1 (Homo sapiens, UniProt P23458); assay: HotSpot 10-dose dose-response kinase assay: JAK1; type: biochemical; settings: read-out: Dose-response IC50 JAK1; 10-dose dose-response, 1 μM ATP
# PKCepsilon = PKCepsilon (Homo sapiens, UniProt Q02156); assay: HotSpot 10-dose dose-response kinase assay: PKCepsilon; type: biochemical; settings: read-out: Dose-response IC50 PKCepsilon; 10-dose dose-response, 1 μM ATP
# TYK2 = TYK2 (Homo sapiens, UniProt P29597); assay: 369-kinase HotSpot kinome screen: TYK2; type: biochemical; settings: read-out: Tyk2 inhibition, from kinome screen
# Sequence of TYK2 (P29597 whole entry): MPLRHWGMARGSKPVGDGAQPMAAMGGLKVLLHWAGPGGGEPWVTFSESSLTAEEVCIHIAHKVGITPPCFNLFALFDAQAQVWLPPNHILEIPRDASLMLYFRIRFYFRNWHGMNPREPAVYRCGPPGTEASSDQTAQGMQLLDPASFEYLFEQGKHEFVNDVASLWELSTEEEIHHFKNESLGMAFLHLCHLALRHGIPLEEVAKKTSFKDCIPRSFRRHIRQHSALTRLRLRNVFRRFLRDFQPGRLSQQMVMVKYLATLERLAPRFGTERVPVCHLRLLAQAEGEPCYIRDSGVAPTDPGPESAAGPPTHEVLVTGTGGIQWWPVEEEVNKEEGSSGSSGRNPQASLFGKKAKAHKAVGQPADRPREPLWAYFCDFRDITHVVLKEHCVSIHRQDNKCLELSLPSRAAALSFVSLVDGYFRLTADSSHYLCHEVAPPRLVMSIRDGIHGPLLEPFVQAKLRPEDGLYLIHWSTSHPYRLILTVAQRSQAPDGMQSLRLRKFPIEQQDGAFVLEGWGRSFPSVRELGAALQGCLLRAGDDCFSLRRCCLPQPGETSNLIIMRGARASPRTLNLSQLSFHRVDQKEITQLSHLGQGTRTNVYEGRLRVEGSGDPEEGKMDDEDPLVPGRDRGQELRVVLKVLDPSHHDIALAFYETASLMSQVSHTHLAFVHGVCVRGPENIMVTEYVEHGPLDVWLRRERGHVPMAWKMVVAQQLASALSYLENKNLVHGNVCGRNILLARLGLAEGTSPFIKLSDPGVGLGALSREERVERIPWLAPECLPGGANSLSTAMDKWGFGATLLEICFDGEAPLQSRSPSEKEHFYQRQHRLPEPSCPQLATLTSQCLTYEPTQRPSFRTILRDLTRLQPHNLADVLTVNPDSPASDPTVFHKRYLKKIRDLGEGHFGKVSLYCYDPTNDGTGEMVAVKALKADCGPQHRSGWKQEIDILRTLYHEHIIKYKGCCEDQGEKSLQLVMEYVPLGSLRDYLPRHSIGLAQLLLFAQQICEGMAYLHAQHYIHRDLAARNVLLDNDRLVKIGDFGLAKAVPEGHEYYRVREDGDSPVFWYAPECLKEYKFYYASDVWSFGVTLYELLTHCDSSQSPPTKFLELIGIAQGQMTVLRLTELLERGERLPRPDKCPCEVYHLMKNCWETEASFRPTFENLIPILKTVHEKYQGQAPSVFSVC
# JAK2 = JAK2 (Homo sapiens, UniProt O60674); assay: HotSpot 10-dose dose-response kinase assay: JAK2; type: biochemical; settings: read-out: Dose-response IC50 JAK2; 10-dose dose-response, 1 μM ATP
# BRAF = BRAF (Homo sapiens, UniProt P15056); assay: HotSpot 10-dose dose-response kinase assay: BRAF; type: biochemical; settings: read-out: Dose-response IC50 BRAF; 10-dose dose-response, 1 μM ATP
# EGFR (T790M) = EGFR (T790M) (Homo sapiens, UniProt P00533, T790M); assay: HotSpot 10-dose dose-response kinase assay: EGFR; type: biochemical; settings: read-out: Dose-response IC50 EGFR (T790M); 10-dose dose-response, 1 μM ATP
# PDGFRa = PDGFRa (Homo sapiens, UniProt P16234); assay: HotSpot 10-dose dose-response kinase assay: PDGFRa; type: biochemical; settings: read-out: Dose-response IC50 PDGFRa; 10-dose dose-response, 1 μM ATP
# JAK3 = JAK3 (Homo sapiens, UniProt P52333); assay: HotSpot 10-dose dose-response kinase assay: JAK3; type: biochemical; settings: read-out: Dose-response IC50 JAK3; 10-dose dose-response, 1 μM ATP
# Sequence of JAK3 (P52333 whole entry): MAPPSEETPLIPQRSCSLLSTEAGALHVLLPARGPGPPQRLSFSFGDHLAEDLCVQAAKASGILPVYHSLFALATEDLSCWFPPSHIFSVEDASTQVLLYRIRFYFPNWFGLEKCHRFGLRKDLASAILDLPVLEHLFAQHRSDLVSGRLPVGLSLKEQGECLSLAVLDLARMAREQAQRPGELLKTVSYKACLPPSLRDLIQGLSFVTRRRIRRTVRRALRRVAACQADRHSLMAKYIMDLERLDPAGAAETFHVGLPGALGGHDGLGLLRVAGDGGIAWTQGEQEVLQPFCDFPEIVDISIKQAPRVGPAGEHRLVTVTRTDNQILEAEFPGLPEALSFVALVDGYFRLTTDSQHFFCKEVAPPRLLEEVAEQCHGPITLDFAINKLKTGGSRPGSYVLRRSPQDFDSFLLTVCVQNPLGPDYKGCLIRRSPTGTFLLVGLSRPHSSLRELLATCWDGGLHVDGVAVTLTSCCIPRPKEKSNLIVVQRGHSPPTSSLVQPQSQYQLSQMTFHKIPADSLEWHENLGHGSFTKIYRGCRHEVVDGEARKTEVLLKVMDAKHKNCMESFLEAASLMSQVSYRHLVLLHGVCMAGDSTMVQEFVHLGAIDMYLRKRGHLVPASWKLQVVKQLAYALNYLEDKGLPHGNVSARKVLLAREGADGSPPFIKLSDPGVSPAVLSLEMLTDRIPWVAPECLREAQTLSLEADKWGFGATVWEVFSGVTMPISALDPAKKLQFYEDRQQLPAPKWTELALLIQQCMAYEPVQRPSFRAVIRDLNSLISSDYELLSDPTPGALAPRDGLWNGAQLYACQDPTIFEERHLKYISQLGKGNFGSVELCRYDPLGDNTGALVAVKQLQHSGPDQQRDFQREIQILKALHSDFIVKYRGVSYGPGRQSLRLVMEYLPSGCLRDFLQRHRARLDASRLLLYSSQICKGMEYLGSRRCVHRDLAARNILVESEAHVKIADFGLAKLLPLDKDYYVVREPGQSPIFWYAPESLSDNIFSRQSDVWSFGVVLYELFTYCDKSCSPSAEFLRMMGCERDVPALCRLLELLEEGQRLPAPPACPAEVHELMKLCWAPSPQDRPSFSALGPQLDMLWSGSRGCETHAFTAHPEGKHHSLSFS
# DDR2 = DDR2 (Homo sapiens, UniProt Q16832); assay: HotSpot 10-dose dose-response kinase assay: DDR2; type: biochemical; settings: read-out: Dose-response IC50 DDR2; 10-dose dose-response, 1 μM ATP
# EGFR (L858R, T790M) = EGFR (L858R, T790M) (Homo sapiens, UniProt P00533, L858R/T790M); assay: HotSpot 10-dose dose-response kinase assay: EGFR; type: biochemical; settings: read-out: Dose-response IC50 EGFR (L858R, T790M); 10-dose dose-response, 1 μM ATP
# ANT = settings: read-out: IC50 ANT inhibition; cited from earlier work
# RET = RET (Homo sapiens, UniProt P07949); assay: HotSpot 10-dose dose-response kinase assay: RET; type: biochemical; settings: read-out: Dose-response IC50 RET; 10-dose dose-response, 1 μM ATP
# Sequence of RET (P07949 29-1114): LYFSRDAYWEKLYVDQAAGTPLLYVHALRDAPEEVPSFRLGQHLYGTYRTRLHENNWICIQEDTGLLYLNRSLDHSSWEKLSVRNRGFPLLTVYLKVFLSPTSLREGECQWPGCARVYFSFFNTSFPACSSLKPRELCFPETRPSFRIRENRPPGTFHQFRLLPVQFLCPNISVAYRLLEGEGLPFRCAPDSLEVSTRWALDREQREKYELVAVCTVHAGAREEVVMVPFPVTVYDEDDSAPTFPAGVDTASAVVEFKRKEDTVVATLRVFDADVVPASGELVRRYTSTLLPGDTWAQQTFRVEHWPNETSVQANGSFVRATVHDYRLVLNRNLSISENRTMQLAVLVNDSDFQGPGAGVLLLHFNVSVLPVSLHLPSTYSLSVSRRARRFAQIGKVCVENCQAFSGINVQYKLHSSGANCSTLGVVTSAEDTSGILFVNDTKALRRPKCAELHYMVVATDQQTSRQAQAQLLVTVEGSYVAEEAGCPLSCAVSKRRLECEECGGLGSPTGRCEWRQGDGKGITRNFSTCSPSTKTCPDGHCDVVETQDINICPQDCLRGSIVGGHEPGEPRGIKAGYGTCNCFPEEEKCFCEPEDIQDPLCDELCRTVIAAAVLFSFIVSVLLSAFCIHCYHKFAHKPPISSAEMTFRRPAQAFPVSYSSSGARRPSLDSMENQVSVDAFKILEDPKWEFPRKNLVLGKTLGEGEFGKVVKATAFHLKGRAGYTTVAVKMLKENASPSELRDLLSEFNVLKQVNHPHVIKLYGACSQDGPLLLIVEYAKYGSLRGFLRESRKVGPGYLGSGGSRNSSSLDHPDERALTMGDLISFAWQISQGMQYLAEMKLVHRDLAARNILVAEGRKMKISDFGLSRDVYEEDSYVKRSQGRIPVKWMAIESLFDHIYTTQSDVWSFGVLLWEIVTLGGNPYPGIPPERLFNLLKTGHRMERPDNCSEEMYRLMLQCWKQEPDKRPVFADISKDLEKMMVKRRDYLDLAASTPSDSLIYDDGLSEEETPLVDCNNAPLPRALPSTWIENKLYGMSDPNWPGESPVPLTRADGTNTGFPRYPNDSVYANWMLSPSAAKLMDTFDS
# EGFR (L858R) = EGFR (L858R) (Homo sapiens, UniProt P00533, L858R); assay: HotSpot 10-dose dose-response kinase assay: EGFR; type: biochemical; settings: read-out: Dose-response IC50 EGFR (L858R); 10-dose dose-response, 1 μM ATP
# BRAF (V599E) = BRAF (V599E) (Homo sapiens, UniProt P15056, V600E); assay: HotSpot 10-dose dose-response kinase assay: BRAF; type: biochemical; settings: read-out: Dose-response IC50 BRAF (V599E); 10-dose dose-response, 1 μM ATP
# Sequence of BRAF (V599E) (P15056 416-766 V600E limits assumed): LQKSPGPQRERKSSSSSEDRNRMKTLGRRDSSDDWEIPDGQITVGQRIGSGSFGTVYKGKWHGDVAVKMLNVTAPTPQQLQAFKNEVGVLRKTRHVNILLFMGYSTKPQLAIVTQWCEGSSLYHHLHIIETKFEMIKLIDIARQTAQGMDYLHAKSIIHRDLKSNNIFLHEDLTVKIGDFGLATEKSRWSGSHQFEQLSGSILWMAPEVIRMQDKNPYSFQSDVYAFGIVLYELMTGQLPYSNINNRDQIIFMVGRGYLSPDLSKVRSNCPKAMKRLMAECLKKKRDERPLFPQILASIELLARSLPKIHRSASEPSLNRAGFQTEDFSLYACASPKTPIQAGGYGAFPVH
# EGFR (G719S) = EGFR (G719S) (Homo sapiens, UniProt P00533, G719S); assay: HotSpot 10-dose dose-response kinase assay: EGFR; type: biochemical; settings: read-out: Dose-response IC50 EGFR (G719S); 10-dose dose-response, 1 μM ATP
# ABL1 = ABL1 (Homo sapiens, UniProt P00519); assay: HotSpot 10-dose dose-response kinase assay: ABL1; type: biochemical; settings: read-out: Dose-response IC50 ABL1; 10-dose dose-response, 1 μM ATP
# Sequence of ABL1 (P00519 whole entry): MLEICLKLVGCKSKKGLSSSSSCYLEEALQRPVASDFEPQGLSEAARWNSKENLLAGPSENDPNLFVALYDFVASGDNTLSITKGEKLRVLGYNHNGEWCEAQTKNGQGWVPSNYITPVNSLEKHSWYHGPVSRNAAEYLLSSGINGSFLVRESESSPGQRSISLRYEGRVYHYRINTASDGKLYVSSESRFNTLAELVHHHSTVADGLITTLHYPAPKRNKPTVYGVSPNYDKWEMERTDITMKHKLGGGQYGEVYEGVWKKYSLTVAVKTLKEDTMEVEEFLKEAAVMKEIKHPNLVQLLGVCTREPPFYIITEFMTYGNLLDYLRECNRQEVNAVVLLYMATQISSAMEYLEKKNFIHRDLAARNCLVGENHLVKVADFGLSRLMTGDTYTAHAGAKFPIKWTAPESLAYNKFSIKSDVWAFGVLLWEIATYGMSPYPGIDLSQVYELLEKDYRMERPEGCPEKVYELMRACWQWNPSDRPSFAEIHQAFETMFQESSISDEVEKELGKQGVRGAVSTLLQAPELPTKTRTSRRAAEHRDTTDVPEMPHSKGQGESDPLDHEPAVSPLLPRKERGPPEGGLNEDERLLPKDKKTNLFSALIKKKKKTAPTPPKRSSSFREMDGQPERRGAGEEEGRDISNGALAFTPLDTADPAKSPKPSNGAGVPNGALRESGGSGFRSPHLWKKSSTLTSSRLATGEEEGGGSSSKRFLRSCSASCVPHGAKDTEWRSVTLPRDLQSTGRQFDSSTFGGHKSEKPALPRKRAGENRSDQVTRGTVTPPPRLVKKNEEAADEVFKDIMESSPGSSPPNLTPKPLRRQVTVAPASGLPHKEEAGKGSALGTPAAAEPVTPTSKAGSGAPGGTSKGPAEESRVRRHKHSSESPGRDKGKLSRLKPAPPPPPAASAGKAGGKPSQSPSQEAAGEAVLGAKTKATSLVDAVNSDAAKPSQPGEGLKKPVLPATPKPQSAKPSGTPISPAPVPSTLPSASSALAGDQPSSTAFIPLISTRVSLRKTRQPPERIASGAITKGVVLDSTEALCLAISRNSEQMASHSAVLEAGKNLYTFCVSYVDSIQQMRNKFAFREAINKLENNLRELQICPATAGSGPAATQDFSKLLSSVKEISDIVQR
# EGFR (d746–750) = EGFR (d746–750) (Homo sapiens, UniProt P00533, DEL746-750); assay: HotSpot 10-dose dose-response kinase assay: EGFR; type: biochemical; settings: read-out: Dose-response IC50 EGFR (d746–750); 10-dose dose-response, 1 μM ATP
# EGFR = EGFR (Homo sapiens, UniProt P00533); assay: EGFR wild type kinase-domain inhibition assay
# [1] = cited from earlier work
# [2] = system: MCF-7, SW620, SW480, H460, A549, and MDA-MB-231 cell lines; assay: GGOH rescue of cell growth inhibition; type: cell-based; settings: six cell lines, 20 μM GGOH
# kinases = assay: Other kinase assays; type: biochemical; settings: Figures S10 and S11
compound,measurement,setting,value
"Nc1ncnc2c1ncn2[C@@H]1O[C@H](COP(=O)(O)OP(=O)(O)C(Cl)(Cl)P(=O)(O)O)[C@@H](O)[C@H]1O [compound 4, adenosine 5′-(beta, gamma-dichloro-methylene) diphosphate]",IC50,JAK1,66 nM
same,IC50,PKCepsilon,43 nM
same,IC50,TYK2,~230 nM
same,IC50,JAK2,13 nM
same,IC50,BRAF,6400 nM
same,IC50,EGFR (T790M),270 nM
same,IC50,PDGFRa,4 nM
same,IC50,JAK3,5 nM
same,IC50,DDR2,47 nM
same,IC50,"EGFR (L858R, T790M)",80 nM
same,IC50,ANT,~50000 nM
same,IC50,RET,140 nM
same,IC50,EGFR (L858R),490 nM
same,IC50,BRAF (V599E),230000 nM
same,IC50,EGFR (G719S),760 nM
same,IC50,ABL1,79 nM
same,IC50,EGFR (d746–750),4300 nM
"O=P(O)(O)C(O)(Cn1ccnc1)P(=O)(O)O [compound 6, zoledronate]",IC50,EGFR,72000 ± 12000 nM
Nc1ncnc2c1ncn2[C@@H]1O[C@H](COP(=O)(O)OP(=O)(O)C(Br)(Br)P(=O)(O)O)[C@@H](O)[C@H]1O [compound 23],IC50,"EGFR (L858R, T790M)",16 nM
Nc1ncnc2c1ncn2[C@@H]1O[C@H](COP(=O)(O)OP(=O)(O)OP(=O)(O)O)[C@@H](O)[C@H]1O [ATP],pKa4,[1],7.1
NCCC(O)(P(=O)(O)O)P(=O)(O)O [pamidronate],GGOH rescue of growth inhibition,[2],very small rescue effects
Nc1ncnc2c1ncn2C1OC(COP(=O)(O)OP(=O)(O)C(Sc2ccc(Cl)cc2)P(=O)(O)O)C(O)C1O (stereo not shown) [compound 5],activity in other kinase assays,kinases,low activity
